Experiments:
[1] = previously showed; cited from earlier work
[2] = tested on: orthotopic xenograft model of pancreatic ductal adenocaricinoma; conditions: pancreatic ductal adenocarcinoma; cited from earlier work
[3] = molecular target: T1, NHE1 (Homo sapiens, UniProt P19634); experiment: Cuvette-based NHE1 inhibition assay; format: cell-based; conditions: MDA-MB-231 cells, cuvette assay; read-out: NHE1 Cuvette IC50
T1 construct: endogenous in cells; host or cells: MDA-MB-231
Description: Performed as described in [53]. Briefly, MDA-MB-231 cells were grown to ~80–90% confluence on glass coverslips. Then, 3 µM BCECF were loaded into cells in 400 µL serum-free medium and the fluorescence was measured using a PTI Deltascan spectrofluorometer (Horiba Ltd., Kyoto, Japan). […] A calibration curve of pHi fluorescence was performed for every sample using nigericin [55]. […] IC50 values were determined through fitting of Log-10 transformed data using the “log(inhibitor) versus normalised response–variable slope” non-linear function in GraphPad PRISM v8.0 software package (GraphPad Software, San Diego, USA).

[4] = Cell viability (cytotoxicity) assay; format: cell-based; conditions: human, MDA-MB-231 cells, 48 h treatment
Description: On the day of treatment, respective compounds were serially diluted using a semi-logarithmic dilution series from 20 mM stocks in neat DMSO into DMEM-high glucose media (10% v/v FBS) in a separate 96-well plate and under sterile conditions. Thereafter, 10 μL of the diluted compounds at their respective concentrations (n = 4) were added to the cells. […] Vehicle media blanks or drug blanks were also included to correct for inherent colour of the compounds and phenol red-containing media. Following 48 h treatment, 20 μL CellTitre 96® Aqueous One Solution Cell Proliferation Assay (Promega, Madison, USA) was added to each well, plates were incubated for 2 h, and absorbance was measured at 490 nm using a SpectraMax Plus 384-well plate reader (Molecular Devices LLC, San Jose, USA) and Softmax PRO v7.0 software. Blank-corrected data were analysed and graphed using GraphPad PRISM v8.0 software (GraphPad Software, San Diego, CA USA).

[5] = tested on: ENaC; conditions: previously showed; cited from earlier work
[6] = molecular target: T2, urokinase from human kidney cells (human uPA) (Homo sapiens, UniProt P00749); experiment: uPA inhibition assay (fluorescence-based, purified enzyme); format: biochemical
T2 construct: low molecular weight active human uPA; purchased Sigma-Aldrich U4010; host or cells: human kidney cells

[7] = molecular target: T3, MDA-MB-231 cell-surface uPA (HMW human active uPA bound to uPAR) (Homo sapiens, UniProt P00749); experiment: Cell-surface uPA activity assay; format: cell-based; conditions: average ± SEM from four independent assays
T3 construct: pre-incubated with active high molecular weight (HMW) uPA; purchased Molecular Innovations HTC-UPA; host or cells: added to MDA-MB-231 cells (endogenous uPAR)
Description: Having identified non-cytotoxic compounds with the desired target selectivity profiles, we then sought to confirm their uPA inhibitory activities in a more physiologically relevant, whole-cell assay. To this end, the fluorogenic biochemical assay was modified to allow measurement of cell-surface uPA activity in MDA-MB-231 cells, which are known to express uPAR [38, 39]. To maximise enzymatic activity, the cells were pre-incubated with active high molecular weight (HMW) uPA to saturate unoccupied uPAR present at the cell surface.
MDA-MB-231 cells were seeded into Greiner CELLSTAR black 96-well plates (Greiner Bio-one, cat #655079) at density 10,000 cells/well in a volume of 100 µL media and cultured for 48 h. On the day of the experiment, cell culture media were removed via shakeout, followed by washing with 100 µL 1 × Dulbecco’s PBS/1 mM CaCl2/1 mM MgCl2/0.1% protease-free bovine serum albumin/pH 7.4 wash buffer. Cells were then incubated in the presence of 25 nM HMW human active uPA (Molecular Innovations, San Diego, CA, USA, SKU: HTC-UPA) in wash buffer for 30 min at RT. Unbound HMW uPA was removed via washing twice with 100 µL wash buffer. […] Plates were read immediately following the addition of substrate using a POLARstar OMEGA fluorescence plate reader (BMG Labtech GmbH, Offenburg, Germany) according to the parameters in Table S1.

[8] = molecular target: T1, NHE1; experiment: Plate-based NHE1 inhibition assay (BCECF pHi recovery, 96-well plate reader); format: cell-based
Description: To perform NHE1 screening with increased throughput, we adapted the conventional cuvette-based NHE1 activity assay to a simple new 96-well plate format using MDA-MB-231 cells that were compatible with common laboratory fluorescence plate readers (see Section 4 for details).
Culture media were removed and replaced with 200 µL 0.2% FBS-containing media with incubation for 3–4 h to stimulate NHE1 activity, followed by incubation for 30 min in the presence of 5 µM 2′,7′-bis(carboxyethyl)-5(6)-carboxyfluorescein-acetoxymethyl ester (BCECF-AM, cat #ab143463, Abcam, Cambridge, United Kingdom). Cells were then washed with 100 µL/well Na^+-free acid-load buffer: 10 mM NH4Cl, 1.8 mM CaCl2, 90 mM N-methyl-D-glucamine (from 1 M stock titrated to pH 7.4 with HCl), 5 mM glucose, 15 mM HEPES, 5 mM KCl, 1 mM MgCl2 (pH 7.5, adjusted with KOH), and incubated at 37 °C for a further 30 min. Acid-load buffer was removed and replaced with Na^+-containing assay buffer: 100 mM NaCl, 1.8 mM CaCl2, 5 mM glucose, 15 mM HEPES, 5 mM KCl, 1 mM MgCl2 containing serial dilution of each compound or DMSO vehicle, and changes in fluorescence were read immediately using a BMG Labtech POLARstar OMEGA (BMG Labtech GmbH, Offenburg, Germany) plate reader according to the parameters in Table S1. Compounds were tested at n = 3 technical replicates per concentration per plate. BCECF-AM-free cells were treated with matched concentrations of each compound to correct for intrinsic fluorescence. DMSO was present in all wells at a final concentration of 1% v/v. Inhibition of NHE1-mediated pHi recovery was determined by ratiometric calculation of the change in blank-corrected pH-sensitive fluorescence divided by the isobestic fluorescence for each well over time. […] (0% activity) controls present on each plate. IC50 values were determined through fitting of Log-10 transformed data using the “log(inhibitor) versus normalised response–variable slope” non-linear function in GraphPad PRISM v8.0 software package (GraphPad Software, San Diego, CA, USA).

[9] = 1 μM, MDA-MB-231 cells, plate reader

T1 sequence (P19634 whole entry): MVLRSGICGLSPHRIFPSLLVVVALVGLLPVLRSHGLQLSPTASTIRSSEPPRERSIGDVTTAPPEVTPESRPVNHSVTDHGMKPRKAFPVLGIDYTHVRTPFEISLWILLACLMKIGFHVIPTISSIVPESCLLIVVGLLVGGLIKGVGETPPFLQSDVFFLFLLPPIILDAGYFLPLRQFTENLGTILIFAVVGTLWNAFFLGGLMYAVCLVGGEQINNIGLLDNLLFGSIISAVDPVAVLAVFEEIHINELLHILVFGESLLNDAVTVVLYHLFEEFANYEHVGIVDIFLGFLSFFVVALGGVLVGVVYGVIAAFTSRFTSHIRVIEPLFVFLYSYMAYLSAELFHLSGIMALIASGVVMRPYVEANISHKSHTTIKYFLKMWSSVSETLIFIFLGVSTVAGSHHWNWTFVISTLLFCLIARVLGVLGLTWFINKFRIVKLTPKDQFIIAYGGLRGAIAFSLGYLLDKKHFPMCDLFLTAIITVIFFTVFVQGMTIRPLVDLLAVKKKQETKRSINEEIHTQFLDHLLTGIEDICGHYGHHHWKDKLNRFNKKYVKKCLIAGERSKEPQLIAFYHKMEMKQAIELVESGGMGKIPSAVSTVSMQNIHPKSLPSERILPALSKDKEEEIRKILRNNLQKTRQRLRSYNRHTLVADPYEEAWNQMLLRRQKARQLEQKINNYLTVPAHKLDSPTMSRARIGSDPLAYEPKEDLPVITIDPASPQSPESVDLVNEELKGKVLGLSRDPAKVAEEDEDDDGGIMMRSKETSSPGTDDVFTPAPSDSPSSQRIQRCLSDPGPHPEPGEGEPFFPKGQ

## COc1ncc(-c2nc(C(=O)NC(=N)N)c(N)nc2N2CCCCCC2)cn1 [compound 26]
[1]
  K+-sparing or diuretic effects in vivo: no K^+-sparing or diuretic effects
[2]
  anti-metastatic properties: anti-metastatic properties
[3]
  IC50: 21.5 µM
[4]
  IC50 at 48 h: > 100 µM
[5]
  ENaC activity in vitro: no ENaC activity
[6]; purified enzyme, Z-Gly-Gly-Arg-AMC substrate, number in parentheses after value, read-out: uPA IC50
  IC50: 0.086 µM
[6]; uPA over NHE1
  uPA selectivity ratio: 143
[7]
  IC50: 0.149 ± 0.014 µM
[8]; [9]
  NHE1 Inhibition (%) 1 μM: no activity
  inhibition at 1 µM: 0%
[8]; 10 μM, MDA-MB-231 cells, plate reader
  inhibition at 10 µM: 72%
[8]; IC50 measurements
  drop in NHE1 potency relative to unsubstituted 24: ~ 46 fold
[8]; plate-reader value as printed in nM in text, read-out: NHE1 IC50
  IC50: 12300 nM

Source: article PMC8000185 (International Journal of Molecular Sciences, 2021)
